From US20220280527A1, “TRACE AMINE ASSOCIATED RECEPTOR 1 AGONISTS AND PARTIAL AGONISTS FOR PAIN TREATMENT” (Purdue Pharma L.P., priority 2016, published 2022)

What was measured:
hTAAR1 = target: T1, hTAAR1 (Homo sapiens, UniProt Q96RJ0); test: hTAAR1 functional assay (cAMP); type: cell-based; conditions: for EC50: read-out: hTAAR1 EC50 (mean ± SEM (n)); for Emax: read-out: hTAAR1 Emax (mean ± SEM (n))
T1 construct: expressed in transfected cells; host or cells: recombinant cells
T1 sequence (Q96RJ0 1-339): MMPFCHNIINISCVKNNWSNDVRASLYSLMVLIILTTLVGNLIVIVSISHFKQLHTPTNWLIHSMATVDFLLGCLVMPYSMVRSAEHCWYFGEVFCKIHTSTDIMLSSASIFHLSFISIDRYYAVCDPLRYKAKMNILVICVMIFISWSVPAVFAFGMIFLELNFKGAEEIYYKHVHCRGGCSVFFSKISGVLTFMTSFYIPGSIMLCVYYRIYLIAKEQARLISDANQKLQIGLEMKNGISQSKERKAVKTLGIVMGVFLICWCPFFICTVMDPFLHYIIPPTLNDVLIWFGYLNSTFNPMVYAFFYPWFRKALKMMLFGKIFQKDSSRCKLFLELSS
Description: EC50 and Erna, values are reported for these compounds in Table 1.
A GPCR cAMP Modulation Assay can be used to determine whether a compound can be considered an agonist or antagonist.
cAMP Hunter cell lines were expanded from freezer stocks according to standard procedures. Cells were seeded into white walled, 384-well microplates in a total volume of 20 μL and incubated at 37° C. prior to testing. cAMP modulation was determined using a DiscoverX HitHunter cAMP XS+assay.
To determine whether a compound would be considered an agonist, cells were incubated with a test compound to induce a response. Media was aspirated from cells and replaced with 15 μL, 2:1 HBSS/10mM Hepes: cAMP XS+Ab reagent. Sample stocks were diluted immediately to generate a 4X sample in assay buffer. 5 μL of the 4X sample was added to cells and incubated at room temperature or 37° C. for 30 or 60 minutes. Final assay vehicle concentration was 1%.
After appropriate compound incubation, assay signal was generated by incubation with […] cAMP XS+ED/CL lysis cocktail for one hour followed, which was followed with room temperature incubation with […] cAMP XS+EA reagent for three hours. Microplates were read following signal generation with a PerkinElmer Envision^Tm instrument for chemiluminescent signal detection.
CBIS data analysis suite (ChemInnovation, CA) was used to analyze compound activity. RLU stands for relative light units.
For Gs agonist mode assays, percent activity was calculated using the following formula: […]

Sprague-Dawley rats [1] = test: SNL-induced mechanical hyperalgesia model (paw pressure test, PWT); type: in vivo, rat; conditions: for minimum effective dose (MED): 1 hour prior to testing
Description: Surgery is performed under isoflurane/O, inhalation anesthesia. Following induction of anesthesia, a 3 centimeter incision is made and the left paraspinal muscles are separated from the spinous process at the L4-S2 levels. The L6 transverse process is carefully removed with a pair of small rongeurs to identify visually the L4-L6 spinal nerves. The left L5 (or L5 and L6) spinal nerve(s) is isolated and tightly ligated with silk thread. A complete hemostasis is confirmed and the wound is sutured using non-absorbable sutures, such as nylon sutures or stainless steel staples. Sham-rats undergo an identical surgical procedure except that the spinal nerve(s) is not manipulated. Following surgery animals are weighed, administered a subcutaneous (SC) injection of saline or ringers lactate, the wound area is dusted with antibiotic powder and they are kept on a warm pad until they recover from the anesthesia. Animals are then returned to their home cages until behavioral testing begins (i.e., 3-4 weeks post-surgery). The animals are assessed for their response to either a noxious or non-noxious stimuli, described below, prior to surgery (baseline), then 1, 3, and 5 hours after being administered a compound of the present disclosure 3 or 4 weeks post-surgery.
Hyperalgesia: The paw pressure assay can be used to assess mechanical hyperalgesia. Sensitivity to noxious mechanical stimuli is measured in animals using the paw pressure test to assess mechanical hyperalgesia. In rats, hind paw withdrawal thresholds (“PWT”), measured in grams, in response to a noxious mechanical stimulus are determined using an analgesymeter (Model 7200, commercially available from Ugo Basile of Italy), as described in C. Stein, “Unilateral Inflammation of the Hindpaw in Rats as a Model of Prolonged Noxious Stimulation: Alterations in Behavior and Nociceptive Thresholds,” Pharmacol. Biochem. and Behavior 31:451-455 (1988). The rat is gently restrained, its hindpaw is placed on a small round platform, and punctate pressure is applied to the dorsal surface of the hindpaw in a graded manner. The maximum weight that is applied to the hind paw is set at 250 grams and the end point is taken as complete withdrawal of the paw. PWT is determined once for each rat at each time point and either only the affected (ipsilateral; same side as the injury) rear paw is tested, or both the ipsilateral and contralateral (non-injured; opposite to the injury) rear paw are tested. Rats are tested prior to surgery or FCA administration to determine a baseline, or normal, PWT. Rats are tested again 3-4 weeks post-surgery or 24 hours post-FCA injection and at different times after (e.g., 1, 3, and 5 hours) compound or vehicle administration. A sham control is also implemented to determine the PWT of a rat having neither surgery nor compound administration.
Representative agonists and partial agonists of the present disclosure are tested in the spinal nerve ligation (“SNL”)-induced mechanical hyperalgesia model in male, Sprague-Dawley rats. Sensitivity to noxious mechanical stimuli is measured in animals using the paw pressure test to assess mechanical hyperalgesia. In rats, hind paw withdrawal thresholds (“PWT”), measured in grams, in response to a noxious mechanical stimulus are determined using an analgesymeter (Model 7200, commercially available from Ugo Basile of Italy), as described in C. Stein, “Unilateral Inflammation of the Hindpaw in Rats as a Model of Prolonged Noxious Stimulation: Alterations in Behavior and Nociceptive Thresholds,” Pharmacol. Biochem. & Behavior 31:451-455 (1988). Briefly, the rat's paw is placed on a small platform, and weight is applied in a graded manner up to a maximum of 250 grams. The endpoint is taken as the weight at which the paw is completely withdrawn. PWT is determined once for each rat at each time point. PWT is measured only in the injured paw. Rats are tested prior to surgery to determine a baseline, or normal, PWT. […]

[2] = tested on: 254 bp β-arresting KO rats; test: SNL-induced mechanical hyperalgesia in 254 bp β-arresting KO rats; type: in vivo, rat; conditions: IP dosing, achieved at 1 hour
1276 bp GRK5 KO rats = test: SNL-induced mechanical hyperalgesia in 1276 bp GRK5 KO rats; type: in vivo, rat; conditions: IP dosing, achieved at 3 hours
Sprague-Dawley rats [3] = test: Rotarod performance; type: in vivo, rat; conditions: IP at 30 mg/kg, 1 hour post dosing
Description: The Rotarod test is used to evaluate motor coordination, strength, and balance. The animals are placed on the rotating rod of the device. The time during which an animal can maintain itself on said bar at an accelerating speed of 5-40 rpm is recorded. 300 seconds is the assay cut-off. Data are analyzed by a two-way ANOVA using a Bonferroni Multiple Comparisons test. […] In the experiment, male, Sprague-Dawley rats, 211-241 g (n=10/group) were tested on an accelerating rotarod (AccuScan; manual 5-40 rpm).

Sprague-Dawley rats [4] = test: Tail flick test (nociceptive pain); type: in vivo, rat; conditions: positive control, administered subcutaneously one hour prior to testing

Row | Structure (SMILES) | EC50 (hTAAR1) [nM] | Emax (hTAAR1) [%] | also measured
1 | NC1=N[C@@H](CCc2ccc(NC(=O)c3ccc(Cl)cc3)cc2)CO1 | 8.53 ± 0.25 | 42.7 ± 3 | 
2 | Cc1c(F)cccc1[C@H]1COC(N)=N1 | 13.7 ± 5.01 | 68.7 ± 3 | 
3 | O=C(Nc1ccc(C2CCNC2)cc1)Nc1ccc(Cl)cn1 (stereo not drawn) | 54.5 ± 18.6 | 80.9 ± 3 | 
4 | NC1=N[C@@H](c2ccc(Cl)c(Cl)c2)CO1 |  | 35.5 ± 3 | 
5 | Clc1ccc(Nc2ccc(C3CNCCO3)nc2)cc1 (stereo not drawn) | 123 ± 9.99 | 56.1 ± 7.5 | 
6 | NC1CCc2cc(NC(=O)c3ccnc(C(F)(F)F)c3)ccc2C1 (stereo not drawn) | 163 |  | hTAAR1 Emax (mean ± SEM (n)) (hTAAR1): 85.8 ± 3.0% (2.8)
7 | O=C(Nc1ccc(C2CCNC2)cc1)c1ccc(Cl)cn1 (stereo not drawn) | 475 ± 50.1 | 73.5 ± 3 | 
8 | CC(C)n1nc(OCC(F)(F)F)cc1C(=O)Nc1ccc(C2OC3CN[C@H]2C3)cc1 (stereo partly drawn) | 519 |  | hTAAR1 Emax (mean ± SEM (n)) (hTAAR1): 66.6 ± 14.9% (3)
9 | O=C(Nc1ccc(C2O[C@@H]3CN[C@H]2C3)cc1)c1ccc(Cl)cc1 (stereo partly drawn) | 7210 |  | hTAAR1 Emax (mean ± SEM (n)) (hTAAR1): 29.7 ± 14.2% (3)
10 | CCOc1cccc(NC(=O)c2ccc(N3CCCC3)c(C(F)(F)F)c2)c1 | > 10000 | 6.1 ± 3 | 
11 | CC(C)N(Cc1c[nH]cn1)c1ccc(Cl)cc1 [Compound 1, N-((1H-imidazol-4-yl)methyl)-4-chloro-N-isopropylaniline] |  |  | maximum reversal of SNL-induced mechanical hyperalgesia (Sprague-Dawley rats [1]; IP dosing, achieved at 3 hours): 41%; minimum effective dose (MED) (Sprague-Dawley rats [1]; PO dosing): < 3 mg/kg; maximum reversal of SNL-induced mechanical hyperalgesia (Sprague-Dawley rats [1]; PO dosing, achieved at 3 hours): 69%
12 | CCN(CC1COC(N)=N1)c1ccccc1 (stereo not drawn) [Compound 2, 4-((ethyl(phenyl)amino)methyl)-4,5-dihydrooxazol-2-amine] |  |  | minimum effective dose (MED) (Sprague-Dawley rats [1]; IP dosing): < 1 mg/kg; maximum reversal of SNL-induced mechanical hyperalgesia (Sprague-Dawley rats [1]; IP dosing, achieved at 3 hours): 76%; minimum effective dose (MED) (Sprague-Dawley rats [1]; PO dosing): 10 mg/kg; maximum reversal of SNL-induced mechanical hyperalgesia (Sprague-Dawley rats [1]; PO dosing, achieved at 3 hours): 22%; maximum reversal of SNL-induced mechanical hyperalgesia [2]: 43%; maximum reversal of SNL-induced mechanical hyperalgesia (1276 bp GRK5 KO rats): 61%; rotarod performance (motor performance) (Sprague-Dawley rats [3]): produced deficits in motor performance
13 | NC1=NC(c2ccc(Cl)c(Cl)c2)CO1 (stereo not drawn) [Compound 3, 4-(3,4-dichlorophenyl)-4,5-dihydrooxazol-2-amine] |  |  | minimum effective dose (MED) (Sprague-Dawley rats [1]; IP dosing): 3 mg/kg; maximum reversal of SNL-induced mechanical hyperalgesia (Sprague-Dawley rats [1]; IP dosing, achieved at 3 hours): 56%; minimum effective dose (MED) (Sprague-Dawley rats [1]; PO dosing): 10 mg/kg; maximum reversal of SNL-induced mechanical hyperalgesia (Sprague-Dawley rats [1]; PO dosing, achieved at 1 hour): 23%
14 | CCN(CC1COC(N)=N1)c1ccccc1 (stereo not drawn) [drawing 40] | 92 ± 10.9 | 81.7 ± 3 | 
15 | CN1CC[C@]23c4c5ccc(O)c4O[C@H]2[C@@H](O)C=C[C@H]3[C@H]1C5 [morphine] |  |  | analgesic efficacy in the tail flick assay (Sprague-Dawley rats [4]): robust analgesic efficacy
